Laboratory results as given in patent US8747810B2, “Compositions and methods for imaging tissues, organs and tumors” (President and Fellows of Harvard College, priority 2009, dated 2014).
Like-named read-outs stand apart in the source and are kept apart here.

Key:
[1] = tested on: subcutaneous B16F10 melanoma tumor; assay: Biodistribution of 99mTc complexes in mice bearing subcutaneous B16F10 melanoma tumor; assay type: in vivo; details: for tumor uptake and retention (in words): mouse, in vivo
Text: Biodistribution of 99 mTc complexes in mice bearing subcutaneous B16F10 melanoma tumor was studied for complexes Tc-1-Tc-6.

σ1 receptor = target: T1, σ1 receptor (Cavia porcellus, UniProt Q60492); assay: σ1 receptor competition binding assay, [3H]-(+)-pentazocine; set-up: species or system guinea pig
T1 construct: The membranes were prepared from guinea pig brain (minus cerebellum) as described above; from tissue; host or cells: guinea pig brain (minus cerebellum) membranes
T1 sequence (Q60492 whole entry): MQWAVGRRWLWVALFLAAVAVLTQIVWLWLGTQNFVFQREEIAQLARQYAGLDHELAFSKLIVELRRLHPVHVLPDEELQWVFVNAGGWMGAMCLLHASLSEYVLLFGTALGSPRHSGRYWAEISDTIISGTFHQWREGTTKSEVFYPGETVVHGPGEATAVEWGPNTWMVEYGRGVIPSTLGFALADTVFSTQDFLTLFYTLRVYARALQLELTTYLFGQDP
Experimental: […] See, Mol. Neuropharmacol. 1993, 3, 117-126.
The membranes were prepared from guinea pig brain (minus cerebellum) as described above and stored at −70° C. Twelve concentrations of the nonradioactive rhenium complexes ranging from 1×10^−11 to 1×10^−3 and protein samples (0.15 mg of membrane protein) were incubated with 5 nM [^3H]-(+)-pentazocine in a total volume of 0.25 mL of Tris-HCl (50 mM, pH 8.0). Incubations were carried out for 120 min at 25° C. All assays were terminated by dilution with 5 mL of ice-cold Tris-HCl (10 mM), pH 8.0, and solution were filtered through glass-fiber filters (Whatman GF/F; presoaked in 0.5% polyethyleneimine for 30 min at 25° C.). Filters were then washed three times with 5 mL of ice-cold Tris-HCl (50 mM, pH 8.0), and counted in Hionic-Fluor cocktail (Packard, Groningen, the Netherlands). The corresponding IC50 values were determined with Origin 6.0 software (OriginLab, Northampton, Mass.) and were used for the calculation of the apparent Ki values with the Cheng-Prusoff equation. See, Biochem. Pharmacol. 1973, 22, 3099-3108.

σ2 receptor = target: T2, σ2 receptor (Rattus norvegicus, UniProt Q5U3Y7); assay: σ2 receptor competition binding assay, [3H]-DTG, rat liver membranes
T2 construct: Rat liver membranes were prepared from male Sprague-Dawley rat livers as previously described; from tissue; host or cells: rat (Sprague-Dawley) liver membranes
T2 sequence (Q5U3Y7 1-176): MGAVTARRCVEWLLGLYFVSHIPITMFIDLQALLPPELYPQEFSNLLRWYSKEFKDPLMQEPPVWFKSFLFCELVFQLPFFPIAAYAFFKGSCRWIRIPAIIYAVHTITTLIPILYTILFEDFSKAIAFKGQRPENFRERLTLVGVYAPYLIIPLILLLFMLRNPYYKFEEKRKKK
Experimental: Rat liver membranes were prepared from male Sprague-Dawley rat livers as previously described (Eur. J. Pharmacol.-Mol. Pharmacol. Sect. 1994, 268, 9-18). The in vitro σ2 receptor binding affinities of rhenium coordinated complexes were determined in a competition assay using rat livers and [^3H]-DTG (31 Ci/mmol, NEN Life Science Inc., Cambridge, Mass.) as radioligand in the presence of 10 μM 1-pyrrolidinylethyl 3,4-dichlorophenylacetate oxalate (ACT915 oxalate) to mask σ1 receptors (Bioorg. & Med. Chem. Lett. 2000, 10, 17-18). Competition assays were performed with twelve concentrations of the nonradioactive rhenium complexes ranging from […] to 1×10^−3 and protein samples (0.15 mg of membrane protein) in a total volume of 0.25 mL of Tris-HCl (50 mM, pH 8.0) for 120 min at 25° C. All other manipulations and data analysis were performed as described vide supra for the σ1—receptor assays.

5HT1A receptor = target: T3, 5HT1A receptor (Rattus norvegicus, UniProt P19327); assay: 5HT1A receptor competition binding assay, [3H]-8-OH-DPAT, rat hippocampus
T3 construct: hippocampal homogenates that were prepared from Sprague Dawley rat hippocampus; from tissue; host or cells: rat (Sprague-Dawley) hippocampus membranes
T3 sequence (P19327 1-422): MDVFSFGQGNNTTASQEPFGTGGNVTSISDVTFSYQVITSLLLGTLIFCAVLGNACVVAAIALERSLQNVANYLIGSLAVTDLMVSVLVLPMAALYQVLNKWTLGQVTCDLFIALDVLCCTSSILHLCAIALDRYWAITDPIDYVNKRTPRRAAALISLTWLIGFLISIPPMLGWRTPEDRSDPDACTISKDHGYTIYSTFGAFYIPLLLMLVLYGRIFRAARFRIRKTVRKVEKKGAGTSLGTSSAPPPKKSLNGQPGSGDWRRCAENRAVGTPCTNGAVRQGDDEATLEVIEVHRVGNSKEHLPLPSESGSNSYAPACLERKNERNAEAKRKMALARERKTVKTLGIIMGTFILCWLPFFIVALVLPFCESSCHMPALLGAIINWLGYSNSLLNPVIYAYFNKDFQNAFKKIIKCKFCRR
Experimental: The in vitro 5HT1A binding affinities of rhenium coordinated complexes were determined in a competition assay using rat hippocampus and high-affinity 5HT1A-ligand [^3H]-8-OH-DPAT (135 Ci/mmol, NEN Life Science Inc., Cambridge, Mass.). See, Brain Res. 1995, 673, 217-225.
Male Sprague-Dawley rats (weighing 150-170 g) were sacrificed using anesthesia agent isoflurane. The brains were rapidly removed, and hippocampus, frontal cortex, hypothalamus, and striatum were hand-dissected on ice and stored at −70° C. Tissue was thawed at room temperature and homogenized using a Brinkmann Polytron tissue disrupter in 50 volumes (wt/vol) of ice-cold 50 mM Tris-HCl buffer (pH 7.4). The suspension was centrifuged twice at 27,000 g for 20 min at 4° C. The membrane pellets were resuspended in 50 volumes of (wt/vol) Tris-HCl buffer and incubated at 37° C. for 20 min in a water bath, before a final centrifugation step (27,000 g; 20 min; 4° C.). The final tissue pellets were stored at −70° C. until assayed.
Twelve concentrations of the nonradioactive rhenium complexes ranging from 1×10^−11 to 1×10^−4 and protein samples (0.15 mg of membrane protein) were incubated with 1.5 nM [^3H]-8-OH-DPAT in a total volume of 0.25 mL of Tris-HCl (50 mM, pH 7.4, 10 mM MgSO4). Incubations were carried out for 60 min at 25° C. All assays were terminated by dilution with 5 mL of ice-cold Tris-HCl (10 mM), pH 7.4, and solution were filtered through glass-fiber filters (Whatman GF/F; presoaked in 0.5% polyethyleneimine for 30 min at 25° C.). Filters were then washed three times with 5 mL of ice-cold Tris-HCl (50 mM, pH 7.4), and counted in Hionic-Fluor cocktail (Packard, Groningen, the Netherlands). The corresponding IC50 values were determined with Origin 6.0 software (OriginLab, Northampton, Mass.) and were used for the calculation of the apparent Ki values with the Cheng-Prusoff equation. See, Biochem. Pharmacol. 1973, 22, 3099-3108.
Rhenium complexes were synthesized by the reaction of [ReBr(CO)3(C4H8O)]2 with the final ligands in acetonitrile at room temperature. The in vitro 5-HT1A binding affinities of complexes Re(CO)3-L1-L9 were determined in competitive receptor binding assay using hippocampal homogenates that were prepared from Sprague Dawley rat hippocampus and the high-affinity [^3H]-8-OH-DPAT as the 5HT1A specific ligand.
The in vitro affinity of Re(CO)3-L complexes for the 5-HT1A receptors were assessed by their ability to compete with the high affinity 5HT1A radioligand [^3H]-8-OH-DPAT.

D2 receptors = D2 receptors (Homo sapiens, UniProt P14416); assay: D2 receptor affinity; assay type: binding
D2 receptors, sequence (P14416 whole entry): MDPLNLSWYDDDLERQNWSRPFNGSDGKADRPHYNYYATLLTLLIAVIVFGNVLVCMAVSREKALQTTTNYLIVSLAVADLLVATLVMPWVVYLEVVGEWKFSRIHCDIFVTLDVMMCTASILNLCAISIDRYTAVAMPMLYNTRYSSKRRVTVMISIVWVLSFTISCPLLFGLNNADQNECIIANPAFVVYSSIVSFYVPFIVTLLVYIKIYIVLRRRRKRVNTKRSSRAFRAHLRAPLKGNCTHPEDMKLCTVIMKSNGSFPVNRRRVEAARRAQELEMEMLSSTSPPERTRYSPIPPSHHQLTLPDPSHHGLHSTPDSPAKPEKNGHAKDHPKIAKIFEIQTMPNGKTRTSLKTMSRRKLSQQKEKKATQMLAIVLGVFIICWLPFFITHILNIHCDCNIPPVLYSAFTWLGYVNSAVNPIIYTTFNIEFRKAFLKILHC

[2] = quantity not named in table head, methods calculate apparent Ki (Cheng-Prusoff), read-out: σ-1
[3] = quantity not named in table head, methods calculate apparent Ki (Cheng-Prusoff), read-out: σ-2
[4] = quantity not named in table head, methods calculate apparent Ki (Cheng-Prusoff), read-out: 5HT1A

SMILES | Ki (σ1 receptor; [2]) [nM] | Ki (σ2 receptor; [3]) [nM] | Ki (5HT1A receptor; [4]) [nM] | further results
CCN(CC)CCN(Cc1ccccn1)Cc1ccccc1[O][99Tc].[C-]#[O+].[C-]#[O+].[C-]#[O+] [99 mTc-2] | – | – | – | tumor uptake ([1]; 1 h postinjection): 3.2 % ID/g; tumor retention over a 6 h period ([1]; share of tumor uptake retained over 6 h): 65%
[99Tc][O]c1ccccc1CN(CCN1CCCCC1)Cc1ccccn1.[C-]#[O+].[C-]#[O+].[C-]#[O+] [99 mTc-3] | – | – | – | tumor uptake and retention (in words) [1]: increase in tumor retention over time
CCN(CC)CC[N+]12CC[N+](CC)(CC)[99Tc-5]1([C]#[O+])([C]#[O+])([C]#[O+])[O]c1ccccc1C2 (stereo not shown) [99 mTc-6] | – | – | – | tumor uptake and retention (in words) [1]: poor tumor uptake and retention
O=C1C[S][Re-]23(=[O])[S]CC[N+]2(CCCCCCN2CCC(c4ccccc4)CC2)CC[N]13 (stereo not shown) [Re-32] | 29.7 ± 4.31 | 223 ± 6.54 | – | –
O=C1C[S][Re-]23(=[O])[S]CC[N+]2(CCCCCCCN2CCC(c4ccccc4)CC2)CC[N]13 (stereo not shown) [Re-33] | – | – | – | Ki (σ1 receptor): 22.9 ± 1.78 nM; Ki (σ2 receptor): 188 ± 18.8 nM
O=C1CN(CCCCCCN2CCC(c3ccccc3)CC2)CC[S][Re]2(=[O])[S]CC[N]12 (stereo not shown) [Re-40] | 30 ± 6.3 | 43.4 ± 0.99 | – | –
O=C1C[N+]2(CCCCCCCN3CCC(c4ccccc4)CC3)CC[S][Re-]23(=[O])[S]CC[N]13 (stereo not shown) [Re-41] | – | – | – | Ki (σ1 receptor): 7.6 ± 0.67 nM; Ki (σ2 receptor): 21.25 ± 0.19 nM
COc1cc2c(cc1OC)CN(CCCCCCN1CC[S][Re]3(=[O])[S]CC[N]3C(=O)C1)CC2 (stereo not shown) [Re-42] | 672 ± 17.6 | 12.1 ± 0.61 | – | –
COc1cc2c(cc1OC)CN(CCCCCCN1CC[S][Re]3(=[O])[S]CC[N]3C(=O)C1)C2 (stereo not shown) [Re-43] | 1480 ± 227 | 11.5 ± 0.2 | – | –
O=C1CN(CCCCCCN2Cc3ccccc3C2)CC[S][Re]2(=[O])[S]CC[N]12 (stereo not shown) [Re-44] | 64 ± 5.9 | 61 ± 3.91 | – | –
CCCN(CCCCCCN1CC[S][Re]2(=[O])[S]CC[N]2C(=O)C1)C1CCc2cccc(O)c2C1 (stereo not shown) [Re-45-HO] | – | – | 0.42 ± 0.08 | –
CCCN(CCCCCC[N+]12CC[S][Re-]13(=[O])[S]CC[N]3C(=O)C2)C1CCc2cccc(OC)c2C1 (stereo not shown) [Re-45] | – | – | – | Ki (5HT1A receptor): 1.21 ± 0.13 nM; Ki (σ1 receptor): 41 ± 3.58 nM; Ki (σ2 receptor): 442 ± 106 nM; Ki (D2 receptors): 1200 nM
CCCN(CCCN1CC[S][Re]2(=[O])[S]CC[N]2C(=O)C1)C1CCc2c(O)cccc2C1 (stereo not shown) [Re-46 HO] | – | – | 81.4 ± 5.24 | –
CCCN(CCCN1CC[S][Re]2(=[O])[S]CC[N]2C(=O)C1)C1CCc2c(cccc2OC)C1 (stereo not shown) [Re-46] | – | – | 91.3 ± 4.1 | –
CCCN(CCCCCCN1CC[S][Re]2(=[O])[S]CC[N]2C(=O)C1)C1CCc2c(O)cccc2C1 (stereo not shown) [Re-47 HO] | – | – | 26 ± 2.71 | –
CCCN(CCCCCCN1CC[S][Re]2(=[O])[S]CC[N]2C(=O)C1)C1CCc2c(cccc2OC)C1 (stereo not shown) [Re-47] | 64.3 ± 1.27 | 244 ± 8.56 | 15.4 ± 4.06 | –
COc1ccccc1N1CCN(CCC[N+]23Cc4ccccc4[O][Re-5]2([C]#[O+])([C]#[O+])([C]#[O+])[n+]2ccccc2C3)CC1 (stereo not shown) [Re-L1] | – | – | – | Ki (5HT1A receptor; Example 62, Re(CO)3-L complexes, [3H]-8-OH-DPAT, rat hippocampal homogenates, read-out: Ki, 5-HT1A receptor affinity): 83.2 ± 2.2 nM
COc1ccccc1C1CCN(CCCCCC[N+]23Cc4ccccc4[O][Re-2]2(=[C]=O)(=[C]=O)(=[C]=O)[n+]2ccccc2C3)CC1 (stereo not shown) [Re-L11] | – | – | 120 ± 21 | –
COc1cc2c(cc1OC)CN(CCCCCC[N+]13Cc4ccccc4[O][Re-2]1(=[C]=O)(=[C]=O)(=[C]=O)[n+]1ccccc1C3)CC2 (stereo not shown) [Re-L12] | 4400 ± 280 | 3.37 | 940 ± 216 | –
COc1cc2c(cc1OC)CN(CCCCCC[N+]13Cc4ccccc4[O][Re-2]1(=[C]=O)(=[C]=O)(=[C]=O)[n+]1ccccc1C3)C2 (stereo not shown) [Re-L13] | 5310 ± 973 | 35.6 ± 2.83 | – | –
O=[C]=[Re-2]12(=[C]=O)(=[C]=O)[NH2+]CC[N+]1(CCCCCCN1CCC(c3ccccc3)CC1)Cc1ccccc1[O]2 (stereo not shown) [Re-L16a] | 39.3 ± 1.43 | 223 ± 8.78 | 629 ± 12 | –
C[N+]1(C)CC[N+]2(CCCCCCN3CCC(c4ccccc4)CC3)Cc3ccccc3[O][Re-2]12(=[C]=O)(=[C]=O)=[C]=O (stereo not shown) [Re-L16b] | 9.12 ± 0.14 | 6420 ± 387 | 439 ± 121 | –
COc1ccccc1C1CCN(CCCCCC[N+]23CC[NH2+][Re-2]2(=[C]=O)(=[C]=O)(=[C]=O)[O]c2ccccc2C3)CC1 (stereo not shown) [Re-L17a] | – | – | 48 ± 5 | –
COc1ccccc1C1CCN(CCCCCC[N+]23CC[N+](C)(C)[Re-2]2(=[C]=O)(=[C]=O)(=[C]=O)[O]c2ccccc2C3)CC1 (stereo not shown) [Re-L17b] | – | – | 18 ± 8 | –
[99Tc][O]c1ccccc1CN(CCCN1CCCCC1)Cc1ccccn1.[C-]#[O+].[C-]#[O+].[C-]#[O+] [Tc-4] | – | – | – | tumor uptake and retention (in words) [1]: increase in tumor retention over time
[99Tc][O]c1ccccc1CN(CCCCCCN1CCCCC1)Cc1ccccn1.[C-]#[O+].[C-]#[O+].[C-]#[O+] [Tc-5] | – | – | – | tumor uptake and retention (in words) [1]: increase in tumor retention over time
